Source: patent US8426136B2, “Epigenetic modifications at TNFα as biomarkers for sensitivity to Smac mimetic-induced apoptosis” (Joyant Pharmaceuticals, Inc., priority 2009, dated 2013)

How the values were obtained:
cIAP2 mRNA = cIAP2 mRNA level in Colo205 cells; assay type: cell-based; conditions: MS-275 alone
TNFα mRNA [1] = experiment: TNFα mRNA by semiquantitative RT-PCR in Colo205 cells; assay type: cell-based, human
Method: (§1) This procedure describes the semi-quantitative measurement of human TNFα mRNA levels in human cell culture.
(§2) Cell Treatment: cells were plated in 6 well dishes at 1.5×10^5 cells/ml in a volume of 2.5 ml, next day cells were treated −/+50 ul of 5 μM Smac Mimetic, JP1010, (final concentration: 100 nM) for 4 hr.
(§3) RNA Isolation: cells were washed 2× with 2 ml PBS followed by isolation of RNA from 6 well dishes using Qiagen RNAeasy kit or TRIzol reagent (Invitrogen) according to manufacturer's protocol. RNA isolation with TRIzol was conducted by adding 1 ml of TRIzol reagent to each well and pipetting up and down several times before transferring lysate to 1.5 ml microfuge tube. […] RNA concentration was measured. […]
(§4) Semi-quantitative RT-PCR for TNFα and Actin were performed as follows: Control semi-quantitative Actin PCR were conducted in a 25 ul reaction mixture with the following cycle condition: 94° C. […] TNFa semi quantitative PCR were conducted in a 25 ul reaction mixture with the following cycle conditions: 94° C.-2 min, 30-35 cycles (depending on cell line) of 94° C.-30 sec, 59° C.-30 sec, 72° C.-1 min, followed by 72° C. for 10 min. […]

TNFα mRNA [2] = experiment: TNFα mRNA by RT-PCR in H2073 cells; assay type: cell-based, human; conditions: FIG. 5 legend
Method: as §1, §2, §3, §4

[3] = system: acetylated Histone H4 levels at the TNFα locus; experiment: ChIP of acetylated histone H4 at the TNFα locus in MDA-MB231 cells; assay type: cell-based; conditions: 5 mM NaBu
Method: Purpose: This procedure evaluates the localization of specific proteins or their modified forms on chromatin. For our purpose to specifically evaluate the levels of modified histones and cofactors bound to the Tumor Necrosis Factor (TNFa) gene promoter.
ChIP Lysis buffer contained 1% SDS, 10 mM EDTA, 50 mM Tris-HCl, pH8.1, 1× protease inhibitor cocktail (Roche). ChIP Dilution buffer contained 1% Triton x-100, 2 mM EDTA, 150 mM NaCl, 20 mM Tris-HCl, pH8.1, 1× protease inhibitor cocktail (Roche). Wash Buffer I contained 0.1% SDS, 1% Triton x-100, 2 mM EDTA, 150 mM NaCl, 20 mM Tris-HCl, pH8.1. Wash Buffer II contained wash buffer I with 500 mM NaCl. Wash Buffer III contained 0.25M LiCl, 1% NP-40, 1% deoxycholate, 1 mM EDTA, 10 mM Tris-HCl, pH8.1. TE buffer contained 10 mM Tris-HCl, pH 7.5, 0.1 mM EDTA. ChIP Extraction buffer contained 1% SDS, 0.1M NaHCO3. Antibodies used include anti-histone H3 (Abcam, ab1791), anti-hyperacetylated histone H4 (Millipore, 06-946), anti-dimethyl-histone H3k4 (Millipore, 07-030), anti-dimethyl histone H3K9 (Abcam, ab1220), anti-histone H4 (Millipore, 05-858), anti-acetylated H3 (Millipore, 06-599), anti-acetylated H4 (Millipore, 06-866).
Cells were plated on either 10 cm or 15 cm tissue culture dishes (˜1×10^6). At 80-100% confluency cells were crosslinked by the addition of 37% formaldehyde (final concentration 1%) directly to the cell medium. […]

Structure (SMILES) | mRNA level of cIAP2 (cIAP2 mRNA) | Smac mimetic-induced TNFα production (TNFα mRNA [1]; FIG. 4 legend) | production of TNFα mRNA (TNFα mRNA [1]; agent alone) | Smac mimetic-induced TNFα production (TNFα mRNA [2]) | increase of the level of acetylated H4 [3]
Nc1ccccc1NC(=O)c1ccc(CNC(=O)OCc2cccnc2)cc1 [MS-275] | increased | Primes | increased | – | –
CCCC(=O)[O-].[Na+] [NaBu, Sodium butyrate] | – | – | – | increases | 4-5 fold
